In patent publication US12281225B2, “Process for preparing stable polymers containing vinylimidazole” (BASF SE, priority 2018, dated 2025):

Experiments:
[1] = test system: Yeast: Candida albicans, Candida valida, Rhodotorula rura, Saccharomyces cerevisiae; test: Preservation test with periodic inoculation, yeast assessment; format: cell-based; details: for Start sample measurement, yeast assess., 4th inoculation: freshly formulated; for 60 d 40° C., yeast assess., 4th inoculation: sample stored 60 d at 40° C.
Procedure, shortened: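 Semiquantitative growth scores (−− no growth to ++ strong growth) from weekly agar streaks incubated 3 days at 25 °C. Preserved polymer samples got four weekly 0.5 ml inoculations (titer 10^9 organisms/ml), the first two days after preservative addition; testing began fresh and after 60-day storage at 40 °C.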

[2] = Analysis of active substance: preservative concentration before and after storage in VI-containing polymer solution; format: physicochemical; details: for active-substance concentration, 0 d, RT: before storage; for active-substance concentration, 14 d, 40° C.: storage 14 d at 40° C.; for active-substance concentration, 28 d, 40° C.: storage 28 d at 40° C.; for active-substance concentration, 60 d 40° C.: storage 60 d at 40° C.
Procedure, shortened: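 Preservatives (MIT, BIT, CMIT, OIT, DCOIT, iodopropynyl butyl carbamate) in aqueous vinylpyrrolidone–vinylimidazole copolymer solution quantified after dilution by isocratic RP18 chromatography with UV detection, using an acid-methanol eluent.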

[3] = Iodine color number according to DIN 6162:2014-09; format: physicochemical
[4] = Physical stability; visual assessment (color, turbidity, phase separation); format: physicochemical; set-up: key: ++: no discernible change with respect to color, turbidity or phase separation; +: marginal change in color number, somewhat increased Tyndall effect but no turbidity; 0: easily discernible increase in color number and moderate turbidity−no phase separation; −: turbidity and change in color number readily discernible by visual assessment; −−: strong color change with strong turbidity and incipient phase separation
Procedure, shortened: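 Scoring was by eye on a scale from ++ to −−, where ++ means no change and −− means strong color change, strong turbidity and incipient phase separation. Color, turbidity and phase separation were the criteria.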

[5] = Polymer P5 (HP56) with stabilizer

active-substance concentration, 0 d, RT ([2]; in Polymer P1): 300 ppm
active-substance concentration, 14 d, 40° C. ([2]; in Polymer P1): 244 ppm
active-substance concentration, 28 d, 40° C. ([2]; in Polymer P1): 183 ppm
active-substance concentration, 60 d 40° C. ([2]; in Polymer P1): 94 ppm
active-substance concentration, 0 d, RT ([2]; in Polymer P2): 300 ppm
active-substance concentration, 14 d, 40° C. ([2]; in Polymer P2): 244 ppm
active-substance concentration, 28 d, 40° C. ([2]; in Polymer P2): 195 ppm
active-substance concentration, 60 d 40° C. ([2]; in Polymer P2): 109 ppm
active-substance concentration, 0 d, RT ([2]; in Polymer P3): 300 ppm
active-substance concentration, 14 d, 40° C. ([2]; in Polymer P3): 232 ppm
active-substance concentration, 28 d, 40° C. ([2]; in Polymer P3): 183 ppm
active-substance concentration, 60 d 40° C. ([2]; in Polymer P3): 112 ppm
active-substance concentration, 0 d, RT ([2]; in Polymer P4): 300 ppm
active-substance concentration, 14 d, 40° C. ([2]; in Polymer P4): 246 ppm
active-substance concentration, 28 d, 40° C. ([2]; in Polymer P4): 198 ppm
active-substance concentration, 60 d 40° C. ([2]; in Polymer P4): 123 ppm
active-substance concentration, 0 d, RT ([2]; in Polymer P5 (HP56)): 300 ppm
active-substance concentration, 14 d, 40° C. ([2]; in Polymer P5 (HP56)): 230 ppm
active-substance concentration, 28 d, 40° C. ([2]; in Polymer P5 (HP56)): 180 ppm
active-substance concentration, 60 d 40° C. ([2]; in Polymer P5 (HP56)): 94 ppm
active-substance concentration, 0 d, RT ([2]; in Polymer P6): 300 ppm
active-substance concentration, 14 d, 40° C. ([2]; in Polymer P6): 222 ppm
active-substance concentration, 28 d, 40° C. ([2]; in Polymer P6): 184 ppm
active-substance concentration, 60 d 40° C. ([2]; in Polymer P6): 98 ppm
active-substance concentration, 0 d, RT ([2]; in Polymer P7): 300 ppm
active-substance concentration, 14 d, 40° C. ([2]; in Polymer P7): 228 ppm
active-substance concentration, 28 d, 40° C. ([2]; in Polymer P7): 189 ppm
active-substance concentration, 60 d 40° C. ([2]; in Polymer P7): 106 ppm
active-substance concentration, 0 d, RT ([2]; in Polymer P8): 300 ppm
active-substance concentration, 14 d, 40° C. ([2]; in Polymer P8): 230 ppm
active-substance concentration, 28 d, 40° C. ([2]; in Polymer P8): 180 ppm
active-substance concentration, 60 d 40° C. ([2]; in Polymer P8): 94 ppm
active-substance concentration, 0 d, RT ([2]; in Polymer P9): 300 ppm
active-substance concentration, 14 d, 40° C. ([2]; in Polymer P9): 219 ppm
active-substance concentration, 28 d, 40° C. ([2]; in Polymer P9): 165 ppm
active-substance concentration, 60 d 40° C. ([2]; in Polymer P9): 87 ppm
Iodine color number, 60 d 40° C. ([3]; Polymer P1 with stabilizer): 6.2
Iodine color number, start ([3]; Polymer P1 with stabilizer): 3.0
Iodine color number, 60 d 40° C. ([3]; Polymer P2 with stabilizer): 8.1
Iodine color number, start ([3]; Polymer P2 with stabilizer): 3.1
Iodine color number, 60 d 40° C. ([3]; Polymer P3 with stabilizer): 9.1
Iodine color number, start ([3]; Polymer P3 with stabilizer): 3.4
Iodine color number, 60 d 40° C. ([3]; Polymer P4 with stabilizer): 8.9
Iodine color number, start ([3]; Polymer P4 with stabilizer): 3.4
Iodine color number, 60 d 40° C. [3, 5]: 8.7
Iodine color number, start [3, 5]: 3.6
Iodine color number, 60 d 40° C. ([3]; Polymer P6 with stabilizer): 8.4
Iodine color number, start ([3]; Polymer P6 with stabilizer): 3.6
Iodine color number, 60 d 40° C. ([3]; Polymer P7 with stabilizer): 8.4
Iodine color number, start ([3]; Polymer P7 with stabilizer): 3.6
Iodine color number, 60 d 40° C. ([3]; Polymer P8 with stabilizer): 8.9
Iodine color number, start ([3]; Polymer P8 with stabilizer): 3.4
Iodine color number, 60 d 40° C. ([3]; Polymer P9 with stabilizer): 14.7
Iodine color number, start ([3]; Polymer P9 with stabilizer): 3.9
Physical stability, 60 d 40° C.* ([4]; Polymer P1 with stabilizer): −−
Physical stability, 60 d 40° C.* ([4]; Polymer P2 with stabilizer): −−
Physical stability, 60 d 40° C.* ([4]; Polymer P3 with stabilizer): −−
Physical stability, 60 d 40° C.* ([4]; Polymer P4 with stabilizer): −
Physical stability, 60 d 40° C.* [4, 5]: −−
Physical stability, 60 d 40° C.* ([4]; Polymer P6 with stabilizer): −−
Physical stability, 60 d 40° C.* ([4]; Polymer P7 with stabilizer): −−
Physical stability, 60 d 40° C.* ([4]; Polymer P8 with stabilizer): −−
Physical stability, 60 d 40° C.* ([4]; Polymer P9 with stabilizer): −
SMILES: CCCCCCCCn1sc(Cl)c(Cl)c1=O [DCOIT, dichloroctylisothiazolinone]
Start sample measurement, yeast assess., 4th inoculation ([1]; Polymer P1): − (slight growth, max. 100 colonies)
60 d 40° C., yeast assess., 4th inoculation ([1]; Polymer P1): +
Start sample measurement, yeast assess., 4th inoculation ([1]; Polymer P2): − (slight growth, max. 100 colonies)
60 d 40° C., yeast assess., 4th inoculation ([1]; Polymer P2): +
Start sample measurement, yeast assess., 4th inoculation ([1]; Polymer P3): − (slight growth, max. 100 colonies)
60 d 40° C., yeast assess., 4th inoculation ([1]; Polymer P3): ++
Start sample measurement, yeast assess., 4th inoculation ([1]; Polymer P4): − (slight growth, max. 100 colonies)
60 d 40° C., yeast assess., 4th inoculation ([1]; Polymer P4): ++
Start sample measurement, yeast assess., 4th inoculation ([1]; Polymer P5 (HP56)): − (slight growth, max. 100 colonies)
60 d 40° C., yeast assess., 4th inoculation ([1]; Polymer P5 (HP56)): ++
Start sample measurement, yeast assess., 4th inoculation ([1]; Polymer P6): − (slight growth, max. 100 colonies)
60 d 40° C., yeast assess., 4th inoculation ([1]; Polymer P6): +
Start sample measurement, yeast assess., 4th inoculation ([1]; Polymer P7): − (slight growth, max. 100 colonies)
60 d 40° C., yeast assess., 4th inoculation ([1]; Polymer P7): ++
Start sample measurement, yeast assess., 4th inoculation ([1]; Polymer P8): − (slight growth, max. 100 colonies)
60 d 40° C., yeast assess., 4th inoculation ([1]; Polymer P8): 0 (moderate growth, max. 400 colonies)
Start sample measurement, yeast assess., 4th inoculation ([1]; Polymer P9): − (slight growth, max. 100 colonies)
60 d 40° C., yeast assess., 4th inoculation ([1]; Polymer P9): ++
